According to the NIST ThermoML archive (doi:10.1007/s10765-012-1159-3):
± gives the expanded uncertainty stated by the source.

Settings: 101.33 kPa, Liquid; for kinematic viscosity: Capillary tube (Ostwald / Ubbelohde) method; for mass density: Vibrating tube method

SMILES | kinematic viscosity (293.15 K) [m2/s] | mass density (293.15 K) [kg/m3] | kinematic viscosity (298.15 K) [m2/s] | mass density (298.15 K) [kg/m3]
C1CCCCC1 [cyclohexane] | 1.256e-06 ± 1.1e-08 | 778.7 ± 0.6 | 1.154e-06 ± 1e-08 | 773.9 ± 0.6
CCc1ccccc1 [ethylbenzene] | 7.767e-07 ± 7.4e-09 | 867.1 ± 0.6 | 7.323e-07 ± 7.2e-09 | 862.7 ± 0.6
Cc1ccccc1 [toluene] | 6.8e-07 ± 6.8e-09 | 866.7 ± 0.6 | 6.41e-07 ± 6.6e-09 | 862 ± 0.6

More lines, now with the values ahead:

kinematic viscosity (293.15 K) [m2/s] | mass density (293.15 K) [kg/m3] | kinematic viscosity (298.15 K) [m2/s] | mass density (298.15 K) [kg/m3] | SMILES
4.7e-07 ± 5.6e-09 | 659.4 ± 0.6 | 4.49e-07 ± 5.5e-09 | 654.9 ± 0.6 | CCCCCC [hexane]
7.734e-07 ± 7.4e-09 | 702.5 ± 0.6 | 7.313e-07 ± 7.1e-09 | 698.5 ± 0.6 | CCCCCCCC [octane]
